Laboratory results published in article PMC9502272, “A Metabolomics Approach for Predicting OATP1B-Type Transporter-Mediated Drug–Drug Interaction Liabilities” (Pharmaceutics, 2022).
Where a name gives a salt, the structure may show the parent alone.

Target: T1, Oatp1b2 (Mus musculus, UniProt Q9JJL3)
T1 sequence (Q9JJL3 1-689): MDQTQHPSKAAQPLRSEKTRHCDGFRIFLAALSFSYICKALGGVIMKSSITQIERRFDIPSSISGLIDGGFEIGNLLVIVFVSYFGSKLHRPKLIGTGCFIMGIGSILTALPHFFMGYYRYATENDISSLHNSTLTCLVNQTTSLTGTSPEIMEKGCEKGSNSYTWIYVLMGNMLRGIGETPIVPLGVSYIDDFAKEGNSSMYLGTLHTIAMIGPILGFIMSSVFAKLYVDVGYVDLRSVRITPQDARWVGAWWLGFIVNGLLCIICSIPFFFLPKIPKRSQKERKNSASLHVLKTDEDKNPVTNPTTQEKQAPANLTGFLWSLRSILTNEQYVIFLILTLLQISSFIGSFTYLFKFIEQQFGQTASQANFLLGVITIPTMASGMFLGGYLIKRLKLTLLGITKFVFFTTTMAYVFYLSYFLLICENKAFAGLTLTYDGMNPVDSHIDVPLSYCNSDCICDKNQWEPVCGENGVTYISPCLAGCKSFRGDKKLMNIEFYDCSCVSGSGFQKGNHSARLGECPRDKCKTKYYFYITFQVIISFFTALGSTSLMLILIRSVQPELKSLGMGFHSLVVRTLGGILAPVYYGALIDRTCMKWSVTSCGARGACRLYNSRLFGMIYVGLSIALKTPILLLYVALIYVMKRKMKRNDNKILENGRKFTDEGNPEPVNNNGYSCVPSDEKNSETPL
Experiment: Untargeted metabolomics of plasma from untreated wild-type and Oatp1b2(−/−) mice
Conditions: for Mean value WT: plasma of untreated wild-type mice; for Mean value WT / Mean value KO: raw area counts rescaled to median = 1; for Fold of Change KO/WT: plasma of untreated Oatp1b2-deficient (KO) vs wild-type (WT) mice, semi-quantitative, positive = higher in KO, n = 6 per group; for Mean value KO: plasma of untreated Oatp1b2-deficient mice

Row | Molecule | Mean value WT | Fold of Change KO/WT | Mean value KO
1 | sphingomyelin (d18:1/14:0, d16:1/16:0) | .930 |  | 
2 | tetradecadienedioate (C14:2-DC) | .756 | 2.09 | 1.58
3 | CCCCCCCCCCCCCCCCCC(=O)OC[C@@H](O)COP(=O)(O)OCCN [1-stearoyl-GPE (18:0)] | .867 | 1.34 | 1.16
4 | O=C(O)C1CCCCN1 (stereo not shown) [pipecolate] | .938 | 1.12 | 1.05
5 | CCCCCCCCCCCCCC/C=C\OC[C@H](COP(=O)([O-])OCC[N+](C)(C)C)OC(=O)CCCCCCCCCCCCCCC [1-(1-enyl-palmitoyl)-2-palmitoyl-GPC (P-16:0/16:0)] | .919 | 1.24 | 1.14
6 | C=Cc1ccc(OS(=O)(=O)O)cc1 [4-vinylphenol sulfate] | .847 | 1.55 | 1.32
7 | CCCCCCCCCCCCCCCCC(N)=O [margaramide (17:0)] | .826 | 1.45 | 1.19
8 | dodecenedioate (C12:1-DC) | .543 | 3.94 | 2.14
9 | O=C(O)CCCCCCCCCCCCC(=O)O [tetradecanedioate (C14-DC)] | .459 | 4.27 | 1.96
10 | CCCCCCCCCCCCCC(=O)O[C@H](CC(=O)[O-])C[N+](C)(C)C [myristoylcarnitine (C14)] | .904 | 1.39 | 1.26
11 | CC(C)CC(O)C(=O)O (stereo not drawn) [alpha-hydroxyisocaproate] | .787 | 2.29 | 1.80
12 | CC(C)CCC(=O)NCC(=O)O [isocaproylglycine] | .815 | 1.57 | 1.28
13 | octadecadienedioate (C18:2-DC) | .540 | 3.48 | 1.88
14 | Cc1ccc(OS(=O)(=O)O)cc1 [p-cresol sulfate] | .501 | 9.29 | 4.66
15 | C[C@H](CCC(=O)NCCS(=O)(=O)O)[C@H]1CC[C@H]2[C@@H]3CC[C@@H]4C[C@H](OS(=O)(=O)O)CC[C@]4(C)[C@H]3C[C@H](O)[C@]12C [taurodeoxycholic acid 3-sulfate] | .694 | 1.58 | 1.10
16 | C[C@H](CCC(=O)O)[C@H]1CC[C@H]2[C@@H]3[C@H](O)[C@@H](O)[C@@H]4C[C@H](O)CC[C@]4(C)[C@H]3CC[C@]12C [alpha-muricholate] | .0600 | 45.2 | 2.71
17 | CC(=O)N[C@@H](Cc1cncn1C)C(=O)O [N-acetyl-3-methylhistidine] | .878 | 1.24 | 1.09
18 | Cc1ncc(CO)c(CN)c1O [pyridoxamine] | .805 | 1.77 | 1.42
19 | O=C(O)CCCCCCCCCCC(=O)O [dodecanedioate (C12-DC)] | .366 | 8.12 | 2.97
20 | CC(CCC[C@@H](C)[C@H]1CC[C@H]2[C@@H]3[C@H](O)CC4=CC(=O)CC[C@]4(C)[C@H]3CC[C@]12C)C(=O)O (stereo partly drawn) [7-alpha-hydroxy-3-oxo-4-cholestenoate (7-Hoca)] | .944 | 1.27 | 1.20
21 | C=CC1=C(C)/C(=C/c2[nH]c(Cc3[nH]c(/C=C4\NC(=O)C(C)=C4C=C)c(C)c3CCC(=O)O)c(CCC(=O)O)c2C)NC1=O [bilirubin (E,E)] | .191 | 6.12 | 1.17
